From patent US20240239788A1, “SMALL MOLECULE INHIBITORS OF KRAS G12D MUTANT” (Merck Sharp & Dohme LLC, priority 2021, published 2024)
Where two headings read alike, the source gives them in different places.

Assays:
[1] = target: KRAS protein containing G12D mutation (Homo sapiens (Human), UniProt P01116, G12D); assay: SOS-catalyzed nucleotide exchange assay (GNE), TR-FRET; format: biochemical; details: biotinylated KRAS G12D, SOS and GTP, 60-minute incubation
Protocol: Compounds are added to this complex and then after a 60-minute incubation time the mixture is treated with SOS and unlabeled GTP. Small molecule inhibitors stabilize the Bodipy-GDP complex whereas the untreated protein rapidly exchanges Bodipy-GDP for unlabeled GTP resulting in reduced TR-FRET signal.
This solution is referred to as biotinylated KRAS G12D stock solution.

[2] = tested on: AsPC-1 cells containing homozygous KRAS-G12D activating mutation; assay: Cellular phospho-ERK assay (Examples 1a-106); format: cell-based; details: AsPC-1 cells, 2 hours, ratio of p-Erk vs total Erk, read-out: IC50 (nM) pERK (Cell)
Text: 5% CO? overnight. […] Assay plates were read on a EnVision Multimode Plate Reader (PerkinElmer) and the ratio of p-Erk vs total Erk in each well was used as the final readout.

Sequence of KRAS protein containing G12D mutation (P01116 other isoform, or with tags, fused parts or gaps G12D (already in the parent)): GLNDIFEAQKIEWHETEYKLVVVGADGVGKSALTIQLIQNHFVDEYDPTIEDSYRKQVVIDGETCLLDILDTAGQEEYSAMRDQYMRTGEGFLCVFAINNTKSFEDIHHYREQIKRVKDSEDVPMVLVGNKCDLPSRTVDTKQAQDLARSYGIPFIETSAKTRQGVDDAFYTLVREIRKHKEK

Structure (SMILES)	IC50 [1]	IC50 ([2]; Homo sapiens, ASPC1, 2 h)	IC50 [2]
Cc1c(Cl)cc2[nH]nc(C)c2c1-c1c(F)cc2c(N3CC4CCC(C3)N4)nc(OCC3(CN4CCOCC4)CC3)nc2c1F [Ex 74, 4-((1-(((4-(3,8-diazabicyclo[3.2.1]octan-3-yl)-7-(6-chloro-3,5-dimethyl-1H-indazol-4-yl)-6,8-difluoroquinazolin-2-yl)oxy)methyl)cyclopropyl)methyl) morpholine]	69.1 nM	2000 nM	
Cc1c(Cl)cc2[nH]nc(C)c2c1-c1c(F)cc2c(N3C[C@H]4CC[C@@](C)(C3)N4)nc(OC[C@]3(CN(C)C)CC3(F)F)nc2c1F [Ex 75, 1-((1R)-1-(((7-(6-chloro-3,5-dimethyl-1H-indazol-4-yl)-6,8-difluoro-4-((1S,5R)-1-methyl-3,8-diazabicyclo[3.2.1]octan-3-yl)quinazolin-2-yl)oxy)methyl)-2,2-difluorocyclopropyl)-N,N-dimethylmethanamine]	1440 nM	7160 nM	
Cc1cc2[nH]nc(C)c2c(-c2c(F)cc3c(N4C[C@H]5CC[C@@](C)(C4)N5)nc(OC[C@@H]4C[C@@H](F)CN4C)nc3c2F)c1Cl [Ex 77, 7-(5-chloro-3,6-dimethyl-1H-indazol-4-yl)-6,8-difluoro-2-(((2S,4R)-4-fluoro-1-methylpyrrolidin-2-yl)methoxy)-4-((1S,5R)-1-methyl-3,8-diazabicyclo[3.2.1]octan-3-yl)quinazoline]	792 nM	5350 nM	
Cc1c(Cl)cc2[nH]nc(Cl)c2c1-c1c(F)cc2c(N3C[C@H]4CC[C@@](C)(C3)N4)nc(OCC3(CN4CC[C@@H](F)C4)CC3)nc2c1F [Ex 78, 7-(3,6-dichloro-5-methyl-1H-indazol-4-yl)-6,8-difluoro-2-((1-(((R)-3-fluoropyrrolidin-1-yl)methyl)cyclopropyl)methoxy)-4-((1S,5R)-1-methyl-3,8-diazabicyclo[3.2.1]octan-3-yl)quinazoline]	1630 nM	6370 nM	
CN(C)C[C@@]1(COc2nc(N3C[C@]4(C)CC[C@H]3CN4)c3cc(F)c(-c4cc(O)cc5ccccc45)c(F)c3n2)CC1(F)F [Ex 83, 4-(2-(((R)-1-((dimethylamino)methyl)-2,2-difluorocyclopropyl)methoxy)-6,8-difluoro-4-((1S,4S)-4-methyl-2,5-diazabicyclo [2.2.2]octan-2-yl)quinazolin-7-yl) naphthalen-2-ol]	2.72 nM	640 nM	
Cc1cc(N)nc(-c2c(F)cc3c(N4CC5CCC(C4)N5)nc(OCC4(CN5CCOCC5)CC4)nc3c2F)c1Cl [Ex 88, 6-(4-((1R,5S)-3,8-diazabicyclo[3.2.1]octan-3-yl)-6,8-difluoro-2-((1-(morpholinomethyl)cyclopropy)methoxy)quinazolin-7-yl)-5-chloro-4-methylpyridin-2-amine]	1350 nM	13200 nM	
Oc1cc(-c2c(Cl)cc3c(N4CC5NC(C4)C(O)C5O)nc(OCC4(CN5CCOCC5)CC4)nc3c2F)c2ccccc2c1 (centres unmarked) [Ex. 1a, 3-(6-chloro-8-fluoro-7-(3-hydroxynaphthalen-1-yl)-2-((1-(morpholinomethyl)cyclopropyl)methoxy)quinazolin-4-yl)-3,8-diazabicyclo[3.2.1]octane-6,7-diol]	742 nM	14600 nM	
Oc1cc(-c2c(F)cc3c(N4CC5NC(C4)C(O)C5O)nc(OCC4(CN5CCOCC5)CC4)nc3c2F)c2ccccc2c1 (centres unmarked) [Ex. 2, 3-(6,8-difluoro-7-(3-hydroxynaphthalen-1-yl)-2-((1-(morpholinomethyl)cyclopropyl)methoxy)quinazolin-4-yl)-3,8-diazabicyclo[3.2.1]octane-6,7-diol]	660 nM	33200 nM	
OCC1(COc2nc(N3CC4CCC(C3)N4)c3cc(F)c(-c4cc(O)cc5ccccc45)c(F)c3n2)CNC1 [Ex. 4, 4-(4-(3.8-diazabicyclo[3.2.1]octan-3-yl)-6,8-difluoro-2-((3-(hydroxymethyl)azetidin-3-yl)methoxy)quinazolin-7-yl)naphthalen-2-ol]	169 nM		50800 nM
C=C[C@H]1[C@@H]2CC[C@@H](CN2)N1c1nc(OCC2(CN(C)C)CC2)nc2c(F)c(-c3cc(O)cc4ccccc34)c(F)cc12 [Ex. 6a, 4-(2-((1-((dimethylamino)methyl)cyclopropyl)methoxy)-6,8-difluoro-4-((1S,3S,4S)-3-vinyl-2,5-diazabicyclo[2.2.2]octan-2-yl)quinazolin-7-yl)naphthalen-2-ol]	159 nM	13300 nM	
Cc1cc2[nH]ncc2c(C2Cc3nc(OCC4(CN5CC[C@@H](F)C5)CC4)nc(N4C[C@H]5CC[C@@](C)(C4)N5)c3CO2)c1C(F)(F)F (stereo partly drawn) [Ex. 97, 2-((1-(((R)-3-fluoropyrrolidin-1-yl)methyl)cyclopropyl)methoxy)-7-(6-methyl-5-(trifluoromethyl)-1H-indazol-4-yl)-4-((1S,5R)-1-methyl-3,8-diazabicyclo[3.2.1]octan-3-yl)-7,8-dihydro-5H-pyrano[4,3-d]pyrimidine]	3950 nM	24300 nM	
Cc1cc2[nH]ncc2c(C2Cc3nc(OCC4(CN5CC[C@@H](F)C5)CC4)nc(N4C[C@H]5CC[C@@](C)(C4)N5)c3C(=O)N2)c1C(F)(F)F (stereo partly drawn) [Ex. 98b, 2-((1-(((R)-3-fluoropyrrolidin-1-yl)methyl)cyclopropyl)methoxy)-7-(6-methyl-5-(trifluoromethyl)-1H-indazol-4-yl)-4-((1S,5R)-1-methyl-3,8-diazabicyclo[3.2.1]octan-3-yl)-7,8-dihydropyrido[4,3-d]pyrimidin-5(6H)-one]	11100 nM	50800 nM	
C=C[C@@H]1[C@@H]2CC[C@@H](CN2)N1c1nc(OCC2(CN(C)C)CC2)nc2c(F)c(-c3cc(O)cc4ccccc34)c(F)cc12 [Example 6b, 4-(2-((1-((dimethylamino)methyl)cyclopropyl)methoxy)-6,8-difluoro-4-((1S,3R,4S)-3-vinyl-2,5-diazabicyclo[2.2.2]octan-2-yl)quinazolin-7-yl)naphthalen-2-ol]	426 nM	5500 nM	
CC[C@H]1[C@@H]2CC[C@@H](CN2)N1c1nc(OCC2(CN(C)C)CC2)nc2c(F)c(-c3cc(O)cc4ccccc34)c(F)cc12 [Example 9, 4-(2-((1-((dimethylamino)methyl)cyclopropyl)methoxy)-4-((1S,3S,4S)-3-ethyl-2,5-diazabicyclo[2.2.2]octan-2-yl)-6,8-difluoroquinazolin-7-yl)naphthalen-2-ol]	1330 nM	13600 nM	
CC[C@@H]1[C@@H]2CC[C@@H](CN2)N1c1nc(OCC2(CN(C)C)CC2)nc2c(F)c(-c3cc(O)cc4ccccc34)c(F)cc12 [Example 10, 4-(2-((1-((dimethylamino)methyl)cyclopropyl)methoxy)-4-((1S,3R,4S)-3-ethyl-2,5-diazabicyclo[2,2,2]octan-2-yl)-6,8-difluoroquinazolin-7-yl)naphthalen-2-ol]	2750 nM	9830 nM	
O=C(O)C1CC1COc1nc(N2CC3CCC(C2)N3)c2cc(F)c(-c3cc(O)cc4ccccc34)c(F)c2n1 (centres unmarked) [Example 13, 2-(((4-(3.8-diazabicyclo[3.2.1]octan-3-yl)-6,8-difluoro-7-(3-hydroxynaphthalen-1-yl)quinazolin-2-yl)oxy)methyl)cyclopropane-1-carboxylc acid]	5880 nM		50800 nM
Oc1cc(-c2c(F)cc3c(N4CC5CCC(C4)N5)nc(N4CC5(CCCN5)C4)nc3c2F)c2ccccc2c1 [Example 14, 4-(4-(3.8-diazabicyclo[3.2.1]octan-3-yl)-6,8-difluoro-2-(2,5-diazaspiro[3.4]octan-2-yl)quinazolin-7-yl)naphthalen-2-ol]	1570 nM	24000 nM	
NC(=O)C1(COc2nc(N3CC4CCC(C3)N4)c3cc(F)c(-c4cc(O)cc5ccccc45)c(F)c3n2)CNC1 [Example 15, 3-(((4-(3.8-diazabicyclo[3.2.1]octan-3-yl)-6,8-difluoro-7-(3-hydroxynaphthalen-1-yl)quinazolin-2-yl)oxy)methyl)azetidine-3-carboxamide]	2140 nM	50800 nM	
CN(C)CC1(COc2nc(N3CC4CC(C)(O)C(C3)N4)c3cc(F)c(-c4cc(O)cc5ccccc45)c(F)c3n2)CC1 (centres unmarked) [Example 27, 3-(2-((1-((dimethylamino)meth-yl)cyclopro-pyl)methoxy)-6,8-difluoro-7-(3-hydroxynaphthalen-1-yl)quinazolin-4-yl)-6-methyl-3,8-diazabicyclo [3.2.1]octan-6-ol]	496 nM	22500 nM	
CN(C)CC1(COc2nc(N3CC4CC(C#N)C(C3)N4)c3cc(F)c(-c4cc(O)cc5ccccc45)c(F)c3n2)CC1 (centres unmarked) [Example 28, 3-(2-((1-((dimethylamino)meth-yl)cyclopro-pyl)methoxy)-6,8-difluoro-7-(3-hydroxynaphthalen-1-yl)quinazolin-4-yl)-3,8-diazabicyclo[3.2.1]oc-tane-6-carbontrile]	7450 nM	50800 nM	
CC1CC2CN(c3nc(OCC4(CN(C)C)CC4)nc4c(F)c(-c5cc(O)cc6ccccc56)c(F)cc34)CC1N2 (centres unmarked) [Example 29, 4-(2-((1-((dimethyl-amino)methyl)cyclopro-pyl)methoxy)-6,8-difluoro-4-(6-methyl-3,8-diazabicyclo[3.2.1]oc-tan-3-yl)quinazolin-7-yl)naphthalen-2-ol]	705 nM	11600 nM	
CN(C)CC1(COc2nc(N3CC4NC(C3)C3CC43)c3cc(Cl)c(-c4cc(O)cc5ccccc45)c(F)c3n2)CC1 (centres unmarked) [Example 30, 4-(6-chloro-2-((1-((dimethylamino)meth-yl)cyclopropyl)meth-oxy)-8-fluoro-4-(7,9-diazatri-cyclo[3.3.1.02,4]nonan-7-yl)quinazolin-7-yl)naphthalen-2-ol]	7610 nM	30100 nM	
